This is an account of results in patent US20040214832A1, “Piperazine derivative renin inhibitors” (priority 2003, published 2004).

Each structure is given as a SMILES string. Where only a bound is given, the exact number is not on record here.

This assay concerns the target T1, human renin (Homo sapiens, UniProt P00797).
T1 sequence (P00797 67-406): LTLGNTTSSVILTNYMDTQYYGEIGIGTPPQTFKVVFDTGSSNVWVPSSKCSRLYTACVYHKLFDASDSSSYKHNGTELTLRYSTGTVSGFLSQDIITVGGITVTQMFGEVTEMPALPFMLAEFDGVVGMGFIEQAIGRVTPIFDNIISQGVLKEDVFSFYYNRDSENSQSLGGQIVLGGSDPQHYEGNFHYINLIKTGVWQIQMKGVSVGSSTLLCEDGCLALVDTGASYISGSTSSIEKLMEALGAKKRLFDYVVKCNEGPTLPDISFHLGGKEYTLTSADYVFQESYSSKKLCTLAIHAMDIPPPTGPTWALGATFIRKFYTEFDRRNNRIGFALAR
The assay can be described thus: Determination of renin IC50 by tGFP FRET assay. The following applies: Human recombinant renin, tandem GFP substrate 650 nM, 60 min incubation with compound, pH 7.4, 11-point curve. It counts as biochemical. The essentials: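 Human recombinant renin (final 50.4 μIU) preincubated 60 min with compound (5% DMSO final) in 50 mM HEPES, 1 mM EDTA, 1% PEG 8000, 1 mM DTT, 0.1% BSA, pH 7.4, then tandem-GFP substrate added at 650 nM final. FRET fluorescence read; IC50 from 11-point curves spanning 100 μM–1 pM.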
A word on the IC50: it is the concentration at which inhibition is half-maximal. For the molecule `COc1ccccc1COCCCOc1ccc(N2C(=O)CNC[C@@H]2COCc2ccc(Cl)c(Cl)c2)cc1` [Example 2, (6R)-6-(3,4-dichlorobenzyloxymethyl)-1-{4-[3-(2-methoxybenzyloxy)-propoxy]-phenyl}-piperazin-2-one], the IC50 was 181 nM.
Take `COc1ccc(COC[C@H]2CNCCN2c2ccc(OCCCOCc3cccc(Cl)c3)cc2)cc1` [Example 64, (2R)-1-{4-[3-(3-chlorobenzyloxy)-propoxy]-phenyl}-2-(4-methoxybenzyloxymethyl)-piperazine]: the IC50 is 5040 nM.
For the molecule `COc1ccccc1COCCCOc1ccc(N2C(=O)CNC[C@@H]2COc2ccc(NC(C)=O)cc2)cc1` [Example 93, N-[4-([2R]-1-{4-[3-(2-methoxybenzyloxy)-propoxy]-phenyl}-6-oxopiperazin-2-ylmethoxy)-phenyl]-acetamide], the concentration for half-maximal inhibition (IC50) is above 1000 nM.
Turning to `COc1ccccc1COCCCOc1ccc(N2C(=O)CNC[C@@H]2COCc2ccncc2)cc1` [Example 25, (6R)-1-{4-[3-(2-methoxybenzyloxy)-propoxy]-phenyl}-6-(pyridin-4-ylmethoxymethyl)-piperazin-2-one], the IC50 is above 1000 nM.
As for `COc1ccccc1COCCCOc1ccc(N2C(=O)CNC[C@@H]2COCc2ccccc2F)cc1` [Example 3, (6R)-6-(2-fluorobenzyloxymethyl)-1-{4-[3-(2-methoxybenzyloxy)-propoxy]-phenyl}-piperazin-2-one], the 50% inhibitory concentration (IC50) is 225 nM.
Turning to `COc1ccccc1COCCCOc1ccc(N2C(=O)CNC[C@@H]2COc2ccc3ccccc3c2)cc1Cl` [Example 100, (6R)-1-(3-chloro-4-[3-(2-methoxybenzyloxy)-propoxy]-phenyl)-6-(naphthalene-2-yloxymethyl)-piperazin-2-one], the IC50 was above 1000 nM.
Regarding `COc1ccccc1COCCCOc1ccc(N2C(=O)CNC[C@@H]2COCc2c(Cl)cccc2Cl)cc1` [Example 17, (6R)-6-(2,6-dichlorobenzyloxymethyl)-1-{4-[3-(2-methoxybenzyloxy)-propoxy]-phenyl}-piperazin-2-one], the IC50 is above 1000 nM.
